Assay results reported in PMC6494078, “Development of an HPLC-based guanosine monophosphate kinase assay and application to Plasmodium vivax guanylate kinase” (Analytical Biochemistry, 2019).
Values belong to the compound of their own block, whether it stands above or below them.

Tests used:
Type in all cases: biochemical
[1] = biological target: T1, Plasmodium vivax guanylate kinase (PvGK) (Plasmodium vivax, UniProt A5K709); assay: HPLC guanylate kinase assay, ATP saturation curve (sigmoidal, h = […]; apparent Kprime)
T1 construct: gene PVX_099895; full-length PvGK with an N-terminal hexa-histidine tag

[2] = biological target: T1, Plasmodium vivax guanylate kinase (PvGK); assay: HPLC detection of product formed by purified enzyme
[3] = biological target: T1, Plasmodium vivax guanylate kinase (PvGK); assay: HPLC guanylate kinase assay, GMP saturation curve (substrate inhibition)
[4] = biological target: T1, Plasmodium vivax guanylate kinase (PvGK); assay: HPLC guanylate kinase inhibition assay, percent inhibition at […]; conditions: read-out: % inhibition at 5 mM
[5] = biological target: T1, Plasmodium vivax guanylate kinase (PvGK); assay: HPLC guanylate kinase inhibition assay, IC50 curve

T1 sequence (A5K709 entry or part of it): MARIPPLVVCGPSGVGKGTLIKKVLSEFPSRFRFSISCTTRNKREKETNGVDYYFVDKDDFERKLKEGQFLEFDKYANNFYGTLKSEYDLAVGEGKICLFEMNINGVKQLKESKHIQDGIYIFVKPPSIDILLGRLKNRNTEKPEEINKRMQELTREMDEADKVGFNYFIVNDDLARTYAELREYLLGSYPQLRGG

Compound: Nc1ncnc2c1ncn2[C@@H]1O[C@H](COP(=O)(O)OP(=O)(O)OP(=O)(O)O)[C@@H](O)[C@H]1O [ATP]
Km [1]: 15.6 ± 2.07 µM

Compound: Nc1nc2c(ncn2[C@@H]2O[C@H](COP(=O)(O)OP(=O)(O)O)[C@@H](O)[C@H]2O)c(=O)[nH]1 [GDP]
HPLC detection of product formed by purified enzyme [2]: used to study the kinetics of the forward reaction (forming ADP and GDP) catalyzed by PvGK

Compound: Nc1nc(=O)c2ncn([C@@H]3O[C@H](COP(=O)(O)O)[C@@H](O)[C@H]3O)c2[nH]1 [GMP]
HPLC guanylate kinase assay, GMP saturation curve (substrate inhibition) [3]: showed a decrease in initial velocity with increasing GMP concentrations, indicating strong substrate inhibition

Compound: O=c1ccc2ccc(O)c(O)c2o1 [compound 1, 7,8-dihydroxycoumarin]
inhibition at 5000 µM [4]: 68%

IC50 [5]: 2700 µM
Compound: O=C(O)C1CSC2(C(=O)O)CCC(=O)N12 (centres unmarked) [compound 2, Compound 2]
